# US5719174A, “Indenoindole compounds for use in organ preservation” (priority 1993, dated 1998)
# “Also recorded” adds a separate entry of the source.
# Tests used:
# [1] = tested on: lipid peroxidation in renal tissue; test: Ex vivo hypoxia and reoxygenation of renal tissue after oral administration to mice; assay type: in vivo, mouse; settings: for time after administration up till which lipid peroxidation was abolished: oral dose of 50 mg/kg; for inhibition of lipid peroxidation in renal tissue subjected to ex vivo hypoxia and reoxygenation: oral dose of 50 mg/kg (dose for compounds I and II)
# [2] = tested on: isolated heart cells (myocytes); test: Inhibition of reoxygenation damage in isolated heart cells (LD-leakage); assay type: cell-based, rat; settings: for prevention of ischemic and reperfusion damage to isolated rat heart cells: additive to organ preservation solutions
# Procedure: Hearts were collected from 2 and 6 days old rats and the ventricles were dissected free, placed in Hanks balanced salt solution without Ca^2+ and Mg^2+ but with 0.35 g/l sodium-carbonate and cut in small pieces. The cells were dispersed in the same solution but supplemented with collagenase solution (type 1, 0.8 mg/ml) at 37° C. for 10 minutes and centrifuged, 160 xg for 5 minutes. Subsequently, 5 serial 20 minutes digestions were performed. The cells from the initial digestion were discarded. Centrifugation was made after each 20 minutes period and the collage nase solution was changed to Ham's F 10 culture medium, supplemented with 10% fetal bovine serum (FBS), glutamine 2 mM, penicillin 50 IU/ml and streptomycin 50 μg/ml. A modified method to enrich the isolation of myocytes, were used, including replaiting the cells twice for 30 and 90 min, respectively. The myocytes were plated on 35 mm plastic culture dishes at a density of approximately 9×10^5 cells/ml (1.8×10^6 cells/dish). The cells were kept in culture for 6 days at 37° C. and 5% CO2 under aerobic conditions in a Forma Scientific carbon dioxide incubator, 5% CO2. During this period the cells reached confluence and were beating spontaneously at an approximate frequency of 20-40 beats/min. Each culture dish contained 0.9±0.2 mg protein. The supplemented F10-medium was changed each day. The antioxidant compound II was added to the culture medium in ethanol, reaching a final concentration of 0.1% ethanol. The final concentration of compound II in the culture medium was 0.01, 0.1, 1.0 or 5.0 μmol/l. Before starting the experiment the medium above the myocytes were removed and changed to fresh F10-medium supplemented with glutamine, which was made hypoxic by argon bubbling for 1 hour before addition to the cells. The culture plates were transferred to specially designed air tight thermostated chambers. The experiment lasted for 300 min including 60 min hypoxia, when nitrogen (95% N2, 5% CO2) was slowly gassed above the cells, followed by 240 min reoxygenation (95% O2, 5% CO2). Cell viability was determined by leakage of LD into the medium, and was analyzed after various times 1, 30, 60, 90, 120, 180, 240 and 300 min.
# [3] = tested on: oxidation of lipoproteins in human plasma (mouse peritoneal macrophages); test: Oxidation of lipoproteins in human plasma in the presence of mouse peritoneal macrophages; assay type: cell-based, human plasma; mouse cells
# [4] = tested on: rat liver; test: Ischemic and reperfusion damage to rat liver; settings: additive to organ preservation solutions
# [5] = tested on: oxidation of lipoproteins in human plasma (rabbit smooth muscle cells); test: Oxidation of lipoproteins in human plasma in the presence of rabbit smooth muscle cells; assay type: cell-based
# [6] = tested on: lipid peroxidation in renal tissue; test: In vitro hypoxia and reoxygenation of kidney tissue (TBARS formation); assay type: cell-based; settings: pH 7.4; rat kidney slices, 37° C., pH 7.40, 40 min hypoxia (argon), 30 min reoxygenation; read-out: pIC50, -log of the concentration needed to reduce TBARS formation by 50% of the corresponding vehicle value (converted)
# Procedure: Lipid peroxidation was also tested in renal tissue. Samples were obtained from anesthetized rats, cut into 2 mm slices and put into 50 ml Erlenmeyer flasks containing 40 mmol 1^-1 Hepes buffer (pH 7.40) 37° C. (10-100 mg tissue per 4 ml buffer). The tissue was made hypoxic for 20 min by bubbling a fine stream of argon gas through the buffer. After that an antioxidant or the corresponding vehicle was added to the buffer and the tissue was kept under argon for an additional period of 20 min. The sample was then reoxygenated by vigourous bubbling of the buffer with 95.5% O2 :CO2. After 30 min reoxygenation the iron chelator deferoxamine mesylate (Ciba Geigy AG, Basel, Switzerland) was added (final concentration 45 μmol 1^-1). The sample was homogenized on ice, quickly frozen in dry-ice and alcohol and stored at -70° C. After thawing the formation of 2-thiobarbituric acid-reactive material (TBARS) was determined (Svensson et al Scand J Clin Invest 1993:53). The potencies of the antioxidants (pIC50 i.e. -log of the concentration (antioxidant) needed to reduce TBARS formation by 50% of the corresponding vehicle value) was for compound I: 6.8 and for compound II: 6.8.
# [7] = tested on: rat bone marrow; test: Ischemic and reperfusion damage to rat bone marrow; settings: additive to organ preservation solutions
# [8] = tested on: rat kidney; test: Ischemic and reperfusion damage to rat kidney; settings: additive to organ preservation solutions
# [9] = tested on: lipid peroxidation; test: Ascorbate/Fe^2+ -dependent lipid peroxidation; assay type: biochemical; settings: ascorbate/Fe^2+ model, in vitro
# Description: The indenoindole compounds are efficient as flee-radical scavengers or antioxidants. An assay system measuring the concentration of the compounds of formulas I and II required to inhibit lipid peroxidation by 50% (IC50) was used. The assay system, ascorbate/Fe^2+ -dependent lipid peroxidation, was the same system used in EP-A 409 410 and detailed information about the system is given in said patent specification.
# [10] = tested on: isolated perfused rat heart; test: Postischemic recovery of the isolated perfused (Langendorff) heart after six hours cold ischemia; settings: for prevention of ischemic and reperfusion damage to isolated perfused rat heart: additive to organ preservation solutions
# Procedure: Experiments were designed to investigate the effect on the myocardial recovery after six hours cold ischemia when an antioxidative agent compound II, was added to a crystalloid cardioplegic solution, such as Plegisol (Abbott). The retrogradely perfused (Langendorff) isolated rat heart with an intra-ventricular balloon was used. The hearts were single flushed perfused (10 ml, 4° C.) with either plain Plegisol or Plegisol supplemented with 1 μmol/l of compound II. The hearts were then stored for 6 hours in the respective solution at 4° C. In a third group hearts were single flush perfused with Plegisol without storage of the hems.
smiles,measurement,setting,value
"COc1cc(C)c2c(c1)C1Cc3ccccc3C1N2 (stereo not drawn) [Compound I, 8-Methoxy-6-methyl-THII]",time after administration up till which lipid peroxidation was abolished,[1],≤ 6 h
same,inhibition of lipid peroxidation in renal tissue subjected to ex vivo hypoxia and reoxygenation,[1],abolished lipid peroxidation in renal tissue
same,prevention of ischemic and reperfusion damage to isolated rat heart cells,[2],prevent ischemic and reperfusion damage
same,prevention of oxidation of lipoproteins in human plasma,[3],prevent efficiently oxidation of lipoproteins
same,prevention of ischemic and reperfusion damage to rat liver,[4],prevent ischemic and reperfusion damage
same,prevention of oxidation of lipoproteins in human plasma,[5],prevent efficiently oxidation of lipoproteins
same,IC50,[6],158 nM
same,prevention of ischemic and reperfusion damage to rat bone marrow,[7],prevent ischemic and reperfusion damage
same,prevention of ischemic and reperfusion damage to rat kidney,[8],prevent ischemic and reperfusion damage
same,"pIC50, inhibition of ascorbate/Fe^2+ -dependent lipid peroxidation",[9],8.0
same,prevention of ischemic and reperfusion damage to isolated perfused rat heart,[10],prevent ischemic and reperfusion damage
"COc1cc(C)c2c(c1)C1c3ccccc3CC1N2 (stereo not drawn) [Compound II, 9-Methoxy-7-methyl-iso-THII]",time after administration up till which lipid peroxidation was abolished,[1],≤ 6 h
same,inhibition of lipid peroxidation in renal tissue subjected to ex vivo hypoxia and reoxygenation,[1],abolished lipid peroxidation in renal tissue
same,inhibition at 1 µM,"[2]; Rattus norvegicus, 1 μmol/l, 60 min hypoxia, 240 min reoxygenation, read-out: reduction of the damage (LD-leakage)",90%
same,IC50,"[2]; Rattus norvegicus, 60 min hypoxia, 240 min reoxygenation, read-out: calculated pIC50 (-logIC50), LD-leakage (converted)",31.6 nM
same,prevention of ischemic and reperfusion damage to isolated rat heart cells,[2],prevent ischemic and reperfusion damage
same,prevention of oxidation of lipoproteins in human plasma,[3],prevent efficiently oxidation of lipoproteins
same,prevention of ischemic and reperfusion damage to rat liver,[4],prevent ischemic and reperfusion damage
same,prevention of oxidation of lipoproteins in human plasma,[5],prevent efficiently oxidation of lipoproteins
same,IC50,[6],158 nM
same,prevention of ischemic and reperfusion damage to rat bone marrow,[7],prevent ischemic and reperfusion damage
same,prevention of ischemic and reperfusion damage to rat kidney,[8],prevent ischemic and reperfusion damage
same,"pIC50, inhibition of ascorbate/Fe^2+ -dependent lipid peroxidation",[9],8.2
same,"postischemic LVDP compared to plain Plegisol, in words","[10]; Plegisol with 1 μmol/l, 6 hours at 4° C.",significantly improved; also recorded: drastically improves the functional recovery of rat hearts
same,postischemic left ventricular developed pressure (LVDP),"[10]; Plegisol with 1 μmol/l, 6 hours at 4° C., mean±SEM, plain Plegisol 57±11%, without storage 89±1%",90±9 % of preischemic value
same,prevention of ischemic and reperfusion damage to isolated perfused rat heart,[10],prevent ischemic and reperfusion damage
"Cc1cc(C)c2c(c1)C1(C)Cc3ccccc3C1(C)N2 (stereo not drawn) [Compound III, 4b,6,8,9b-Tetramethyl-THll, reference compound]",time after administration up to which inhibitory effect on lipid peroxidation could be detected,[1]; dose not separately printed for compound III,up to 30 min
same,inhibition of lipid peroxidation in renal tissue subjected to ex vivo hypoxia and reoxygenation,[1],only weak inhibitory effect on lipid peroxidation
same,"pIC50, inhibition of ascorbate/Fe^2+ -dependent lipid peroxidation",[9],7.4
"Cc1c(C)c2c(c(C)c1O)CCC(C)(CCCC(C)CCCC(C)CCCC(C)C)O2 (stereo not drawn) [α-Tocopherol, reference compound]","pIC50, inhibition of ascorbate/Fe^2+ -dependent lipid peroxidation",[9],5.0
